Laboratory results reported in patent publication US11578087B2, “Oxaborole esters and uses thereof” (priority 2016, dated 2023).

Legend:
[1] = system: T. cruzi amastigote (Td Tomato-modified) in Vero cells; assay: In vitro IC50 measurement of T. cruzi amastigote killing using Td Tomato-modified T. cruzi; format: cell-based; details: Trypanosoma cruzi, 72 h, fluorescence, read-out: IC50: I Org. amastigote Growth T. cruzi 3 d
Outline: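 Vero cells infected with Td Tomato-expressing T. cruzi, treated with compound at 5 uM to 5 nM final, incubated 72 h at 37 °C. Fluorescence (Ex 544/Em 612 nm) read at Day 0 and Day 3, Day 0 subtracted; IC50 and IC90 by nonlinear regression.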

[2] = system: IL3000 T. congolense (drug sensitive) strain; assay: In vitro Alamar Blue 72 h drug sensitivity assay for T. congolense; format: cell-based, Trypanosoma congolense; details: Trypanosoma congolense, 72 h, bloodstream form, 69 h + 3 h Resazurin, 34° C., read-out: IC50: I Org. Growth T. congolense 3 d
Outline: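 Bloodstream-form trypanosomes in HMI medium with 20% bovine serum were exposed to compounds for 69 h at 34° C, 5% CO2, then resazurin for another 3 h. Fluorescence read at ex 536/em 588 nm; IC50 from 11-point sigmoidal dose-response curves, at least three independent runs.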

| SMILES | IC50 [1] | IC50 [2] |
| --- | --- | --- |
| Cc1c(C(=O)N[C@H](C(=O)OCc2ccc(C#N)cn2)C(C)C)ccc2c1B(O)OC2 [Example 6-200, (5-cyanopyridin-2-yl)methyl (1-hydroxy-7-methyl-1,3-dihydrobenzo[c][1,2]oxaborole-6-carbonyl)-L-valinate] | ≤ 0.02 µM | < 0.0005 µM |
| Cc1c(C(=O)N[C@H](C(=O)OCC2CCCCC2)C(C)C)ccc2c1B(O)OC2 [Example 6-119, Cyclohexylmethyl (1-hydroxy-7-methyl-1,3-dihydrobenzo[c][1,2]oxaborole-6-carbonyl)-L-valinate] | ≤ 0.02 µM | < 0.0005 µM |
| Cc1c(C(=O)N[C@H](C(=O)OCc2ccc(CN3CCOCC3)cc2)C(C)C)ccc2c1B(O)OC2 [Example 6-130, 4-(Morpholinomethyl)benzyl (1-hydroxy-7-methyl-1,3-dihydrobenzo[c][1,2]oxaborole-6-carbonyl)-L-valinate] | 0.021 to 0.999 µM | < 0.0005 µM |
| Cc1c(C(=O)N[C@H](C(=O)OCc2ccc(F)cc2)C(C)C)ccc2c1B(O)OC2 [Example 6-165, 4-Fluorobenzyl (1-hydroxy-7-methyl-1,3-dihydrobenzo[c][1,2]oxaborole-6-carbonyl)-L-valinate] | ≤ 0.02 µM | < 0.0005 µM |
| CC(C)[C@H](NC(=O)c1ccc2c(c1)B(O)OC2)C(=O)O[C@@H](C)c1ccccc1 [Example 6-023, (S)-1-Phenylethyl (1-hydroxy-1,3-dihydrobenzo[c][1,2]oxaborole-6-carbonyl)-L-valinate] | ≥ 1 µM | 0.01 to 5 µM |
| Cc1c(C(=O)N[C@H](C(=O)OCc2cncs2)C(C)C)ccc2c1B(O)OC2 [Example 6-120, Thiazol-5-ylmethyl (1-hydroxy-7-methyl-1,3-dihydrobenzo[c][1,2]oxaborole-6-carbonyl)-L-valinate] | 0.021 to 0.999 µM | 0.00051 to 0.00999 µM |
| Cc1c(C(=O)N[C@H](C(=O)OCc2ccc(S(=O)(=O)N3CCOCC3)cc2)C(C)C)ccc2c1B(O)OC2 [Example 6-086, 4-(Morpholinosulfonyl)benzyl (1-hydroxy-7-methyl-1,3-dihydrobenzo[c][1,2]oxaborole-6-carbonyl)-L-valinate] | 0.021 to 0.999 µM | < 0.0005 µM |
| CC(C)[C@H](NC(=O)c1ccc2c(c1C1CC1)B(O)OC2)C(=O)OCc1ccccc1 [Example 6-058, Benzyl (7-cyclopropyl-1-hydroxy-1,3-dihydrobenzo[c][1,2]oxaborole-6-carbonyl)-L-valinate] | ≥ 1 µM | < 0.0005 µM |
| Cc1c(C(=O)N[C@H](C(=O)OCc2ccc(F)cc2)C(C)(C)O)ccc2c1B(O)OC2 [Example 6-169, 4-Fluorobenzyl (S)-3-hydroxy-2-(1-hydroxy-7-methyl-1,3-dihydrobenzo[c][1,2]oxaborole-6-carboxamido)-3-methylbutanoate] | ≤ 0.02 µM | < 0.0005 µM |
| Cc1c(C(=O)N[C@@H](C(=O)OCc2ccc(F)cc2)C(C)C)ccc2c1B(O)OC2 [Example 6-087, 4-Fluorobenzyl (1-hydroxy-7-methyl-1,3-dihydrobenzo[c][1,2]oxaborole-6-carbonyl)-D-valinate] | ≥ 1 µM | 0.01 to 5 µM |
| CC(C)[C@H](NC(=O)c1ccc2c(c1)B(O)OC2(C)C)C(=O)OCc1ccc(F)cc1 [Example 6-033, 4-Fluorobenzyl (1-hydroxy-3,3-dimethyl-1,3-dihydrobenzo[c][1,2]oxaborole-6-carbonyl)-L-valinate] | ≥ 1 µM | 0.01 to 5 µM |
| Cc1c(C(=O)N[C@H](C(=O)OCC(F)(F)C(F)(F)F)C(C)C)ccc2c1B(O)OC2 [Example 6-153, 2,2,3,3,3-Pentafluoropropyl (1-hydroxy-7-methyl-1,3-dihydrobenzo[c][1,2]oxaborole-6-carbonyl)-L-valinate] | ≤ 0.02 µM | < 0.0005 µM |
| Cc1c(C(=O)N[C@H](C(=O)OCc2ccc(C(F)(F)F)nc2)C(C)C)ccc2c1B(O)OC2 [Example 6-168, (6-(Trifluoromethyl)pyridin-3-yl)methyl (1-hydroxy-7-methyl-1,3-dihydrobenzo[c][1,2]oxaborole-6-carbonyl)-L-valinate] | ≤ 0.02 µM | < 0.0005 µM |
| CC(C)(C)[C@H](NC(=O)c1ccc2c(c1)B(O)OC2)C(=O)OCc1ccccc1 [Example 6-017, Benzyl (S)-2-(1-hydroxy-1,3-dihydrobenzo[c][1,2]oxaborole-6-carboxamido)-3,3-dimethylbutanoate] | ≥ 1 µM | 0.01 to 5 µM |
| Cc1c(C(=O)N[C@H](C(=O)OCc2cccc(N3CCNCC3)c2)C(C)C)ccc2c1B(O)OC2 [Example 6-126, 3-(Piperazin-1-yl)benzyl (1-hydroxy-7-methyl-1,3-dihydrobenzo[c][1,2]oxaborole-6-carbonyl)-L-valinate] | ≥ 1 µM | 0.00051 to 0.00999 µM |
| CC(C)c1c(C(=O)N[C@H](C(=O)OCc2ccccc2)C(C)C)ccc2c1B(O)OC2 [Example 6-063, Benzyl (1-hydroxy-7-isopropyl-1,3-dihydrobenzo[c][1,2]oxaborole-6-carbonyl)-L-valinate] | ≥ 1 µM | 0.00051 to 0.00999 µM |
| Cc1c(C(=O)N[C@H](C(=O)OCc2cccc(N3CCN(C)CC3)n2)C(C)C)ccc2c1B(O)OC2 [Example 6-201, (6-(4-methylpiperazin-1-yl)pyridin-2-yl)methyl (1-hydroxy-7-methyl-1,3-dihydrobenzo[c][1,2]oxaborole-6-carbonyl)-L-valinate] | 0.021 to 0.999 µM | < 0.0005 µM |
| Cc1c(C(=O)N[C@H](C(=O)OCC2CCOCC2)C(C)C)ccc2c1B(O)OC2 [Example 6-172, (tetrahydro-2H-pyran-4-yl)methyl (1-hydroxy-7-methyl-1,3-dihydrobenzo[c][1,2]oxaborole-6-carbonyl)-L-valinate] | ≤ 0.02 µM | < 0.0005 µM |
| Cc1c(C(=O)NC2(C(=O)OCC3CCCC3)COC2)ccc2c1B(O)OC2 [Example 6-224, Cyclopentylmethyl 3-(1-hydroxy-7-methyl-1,3-dihydrobenzo[c][1,2]oxaborole-6-carboxamido)oxetane-3-carboxylate] | ≤ 0.02 µM | 0.00051 to 0.00999 µM |
| Cc1c(C(=O)N[C@H](C(=O)OCC2CCCC2)C(C)(C)O)ccc2c1B(O)OC2 [Example 6-228, Cyclopentylmethyl (S)-3-hydroxy-2-(1-hydroxy-7-methyl-1,3-dihydrobenzo[c][1,2]oxaborole-6-carboxamido)-3-methylbutanoate] | 0.021 to 0.999 µM | < 0.0005 µM |
| Cc1c(C(=O)N[C@H](C(=O)OCC2CCCO2)C(C)C)ccc2c1B(O)OC2 (stereo partly drawn) [Example 6-210, (tetrahydrofuran-2-yl)methyl (1-hydroxy-7-methyl-1,3-dihydrobenzo[c][1,2]oxaborole-6-carbonyl)-L-valinate] | ≤ 0.02 µM | < 0.0005 µM |
| Cc1c(C(=O)N[C@H](C(=O)OCc2ccc(C(F)(F)F)cn2)C(C)C)ccc2c1B(O)OC2 [Example 6-171, (5-(trifluoromethyl)pyridin-2-yl)methyl (1-hydroxy-7-methyl-1,3-dihydrobenzo[c][1,2]oxaborole-6-carbonyl)-L-valinate] | ≤ 0.02 µM | < 0.0005 µM |
| Cc1c(C(=O)N[C@H](C(=O)OCc2ccc(CN3CCN(C)CC3)cc2)C(C)C)ccc2c1B(O)OC2 [Example 6-111, 4-((4-Methylpiperazin-1-yl)methyl)benzyl (1-hydroxy-7-methyl-1,3-dihydrobenzo[c][1,2]oxaborole-6-carbonyl)-L-valinate] | ≤ 0.02 µM | 0.00051 to 0.00999 µM |
| Cc1c(C(=O)N[C@H](C(=O)OCc2ccc(S(=O)(=O)C(C)C)cc2)C(C)C)ccc2c1B(O)OC2 [Example 6-092, 4-(Isopropylsulfonyl)benzyl (1-hydroxy-7-methyl-1,3-dihydrobenzo[c][1,2]oxaborole-6-carbonyl)-L-valinate] | 0.021 to 0.999 µM | < 0.0005 µM |
| Cc1c(C(=O)N[C@H](C(=O)OCC2(O)CCCC2)C(C)C)ccc2c1B(O)OC2 [Example 6-220, (1-hydroxycyclopentyl)methyl (1-hydroxy-7-methyl-1,3-dihydrobenzo[c][1,2]oxaborole-6-carbonyl)-L-valinate] | ≤ 0.02 µM | 0.00051 to 0.00999 µM |
| Cc1c(C(=O)N[C@H](C(=O)OCc2ccc(F)cc2)C2CCC2)ccc2c1B(O)OC2 [Example 6-059, 4-Fluorobenzyl (S)-2-cyclobutyl-2-(1-hydroxy-7-methyl-1,3-dihydrobenzo[c][1,2]oxaborole-6-carboxamido)acetate] | 0.021 to 0.999 µM | 0.00051 to 0.00999 µM |
| Cc1c(C(=O)N[C@H](C(=O)OC(C)C)C(C)C)ccc2c1B(O)OC2 [Example 6-112, Isopropyl (1-hydroxy-7-methyl-1,3-dihydrobenzo[c][1,2]oxaborole-6-carbonyl)-L-valinate] | ≤ 0.02 µM | 0.00051 to 0.00999 µM |
| CC(C)[C@H](NC(=O)c1ccc2c(c1C(F)F)B(O)OC2)C(=O)OCc1ccc(F)cc1 [Example 6-073, 4-Fluorobenzyl (7-(difluoromethyl)-1-hydroxy-1,3-dihydrobenzo[c][1,2]oxaborole-6-carbonyl)-L-valinate] | ≤ 0.02 µM | 0.00051 to 0.00999 µM |
| Cc1c(C(=O)N[C@H](C(=O)OCc2ccc(OCCCN3CCCC3)cc2)C(C)C)ccc2c1B(O)OC2 [Example 6-249, 4-(3-(Pyrrolidin-1-yl)propoxy)benzyl(1-hydroxy-7-methyl-1,3-dihydrobenzo[c][1,2]oxaborole-6-carbonyl)-L-valinate] | 0.021 to 0.999 µM | 0.00051 to 0.00999 µM |
| Cc1c(C(=O)N[C@H](C(=O)OC2CCNCC2)C(C)C)ccc2c1B(O)OC2 [Example 6-146, Piperidin-4-yl (1-hydroxy-7-methyl-1,3-dihydrobenzo[c][1,2]oxaborole-6-carbonyl)-L-valinate] | ≥ 1 µM | 0.01 to 5 µM |
